Results on seven molecules are retold here after patent US20120142771A1, “BIPHENYLACETAMIDE DERIVATIVE” (Dainippon Sumitomo Pharma Co., Ltd., priority 2008, published 2012).

Read-outs that look alike come from different tables or passages of the source.

What all share (type): in vivo, mice
In assay [1] the test system is subcutaneously pentetrazol-injected model (scPTZ). The assay can be described thus: Subcutaneously pentetrazol-injected model (scPTZ) test. As to conditions: pentetrazol 85 mg/kg s.c. after 1 hour; for scPTZ (positive number/tested number) / responders at 50 mg/kg / responders at 100 mg/kg: Slc: ddY male mice, 3 per group, observed 30 minutes for clonic convulsion; for responders at 50 mg/kg / responders at 100 mg/kg: Mus musculus, po, 1 h, read-out: scPTZ (positive number/tested number) (converted); for anticonvulsant action in subcutaneously pentetrazol-injected model (scPTZ) test: mice, oral 50 or 100 mg/kg. The gist of the method:
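Male Slc:ddY mice (20-30 g, 3 per group) dosed orally at 50 or 100 mg/kg; pentetrazol 85 mg/kg given subcutaneously 1 h later. Controls received 0.5% tragacanth or 0.5% methylcellulose vehicle.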

Assay [2] has as its system 6 Hz psychomotor seizure model. Kind of assay: 6 Hz psychomotor seizure model. As to conditions: mice; for ED50: 6 Hz psychomotor seizure model, read-out: ED50; for ED50 / 6 Hz (Positive number/tested number): oral; for 6 Hz (Positive number/tested number): dose 100 mg/kg, 30 minutes or 1 hour after administration. On the procedure: Test 4: Test of 6 Hz Psychomotor Seizure Model
Similar to Tests 1 and 2, Test 4 evaluates the anticonvulsant action of medicaments. However, unlike Tests 1 and 2, the animal model used herein represents clinical phenotypes of seizures resistant to existing antiepileptic drugs. […] After 30 minutes or an hour of administration, their corneas were electrically stimulated (6 Hz, 32 mA, 3 seconds) to induce symptoms of myoclonus in their forelimbs, Straub tail, and immobility. […] To the control mice, 0.5% tragacanth solution, 0.5% methylcellulose solution, or olive oil was administered.

The test system of assay [3] is maximum electroshock seizure (MES) model. The assay can be described thus: Maximum electroshock seizure (MES) model test. As to conditions: for MES (positive number/tested number) / responders at 50 mg/kg / responders at 100 mg/kg: Slc: ddY male mice, 3 per group, electrical stimulation 1 hour after administration, inhibition of hind limb extension; for responders at 50 mg/kg / responders at 100 mg/kg: Mus musculus, po, 1 h, read-out: MES (positive number/tested number) (converted); for anticonvulsant action in maximum electroshock seizure (MES) model test: mice, oral 50 or 100 mg/kg, 1 hour after administration. Summed up:
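Male Slc: ddY mice (3 per group, 20-30 g) received compound orally at 50 or 100 mg/kg; controls got 0.5% tragacanth or 0.5% methylcellulose. One hour post-dose, corneal stimulation (60 Hz, 25 mA, 0.2 s) induced tonic hind-limb extensor convulsion.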

For `NC(=O)[C@@H](O)c1ccccc1-c1ccccc1` [Example 208, 2-(biphenyl-2-yl)-2S-hydroxyacetamide], the “scPTZ (positive number/tested number)” value in assay [1] (50 mg/kg oral) is given as 1/3; in assay [1] (100 mg/kg oral), 2/3. Also, the median effective dose (ED50) (commonly the midpoint of the dose-response relation) in assay [2] was found to be 90.6 mg/kg. For the same molecule, in assay [2], the “6 Hz (Positive number/tested number)” value was 7/10/100. Further, the “MES (positive number/tested number)” value in assay [3] (50 mg/kg oral) is 2/3; in assay [3] (100 mg/kg oral), 3/3.
Turning to `NC(=O)[C@H](O)c1ccccc1-c1ccccc1` (single isomer, unassigned) [Example 207, 2-(Biphenyl-2-yl)-2R-hydroxyacetamide], the responders at 50 mg/kg in assay [1] (50 mg/kg oral) and in assay [3] (50 mg/kg oral) was 66.7% in each case. In addition, the responders at 100 mg/kg in assay [1] (100 mg/kg oral) is 66.7%; in assay [3] (100 mg/kg oral), 100%. Besides, in assay [1], the “anticonvulsant action in subcutaneously pentetrazol-injected model (scPTZ) test” value (shortened to “anticonvulsant action … (scPTZ) test”) is “anticonvulsant action was observed”. In addition, the ED50 in assay [2] (Mus musculus) turned out to be 86.6 mg/kg. Also, in assay [2] (oral administration at a dose of 100 mg/kg), the “efficacy in 6 Hz psychomotor seizure model” value is given as “potent efficacy”. Also, the “6 Hz (Positive number/tested number)” value in assay [2] is 7/10/100. In addition, the “anticonvulsant action in maximum electroshock seizure (MES) model test” value (“anticonvulsant action … (MES) model test” below) in assay [3] is “anticonvulsant action was observed”.
As for `NC(=O)Cc1ccc(F)cc1-c1ccccc1F` [Example 41, 2-(2′,5-difluorobiphenyl-2-yl)acetamide], the results for the responders at 50 mg/kg in assay [1] (50 mg/kg oral) and in assay [3] (50 mg/kg oral) were 66.7% and 100%, respectively. Further, the values for the responders at 100 mg/kg in assay [1] (100 mg/kg oral) and in assay [3] (100 mg/kg oral) were 66.7% and 100%, respectively. Moreover, the “anticonvulsant action … (scPTZ) test” value in assay [1] is “anticonvulsant action was observed”. For the same molecule, the “6 Hz (Positive number/tested number)” value in assay [2] is 4/5/100. Also, the “anticonvulsant action … (MES) model test” value in assay [3] was “anticonvulsant action was observed”.
Take `NC(=O)Cc1ccccc1-c1cccc(Cl)c1` [Example 13, 2-(3′-chlorobiphenyl-2-yl)acetamide]: the responders at 50 mg/kg was 100% in assay [1] (50 mg/kg oral) and 66.7% in assay [3] (50 mg/kg oral). The values for the responders at 100 mg/kg in assay [1] (100 mg/kg oral) and in assay [3] (100 mg/kg oral) were 66.7% and 100%, respectively. Also, the “anticonvulsant action … (scPTZ) test” value in assay [1] is listed as “anticonvulsant action was observed”. The “6 Hz (Positive number/tested number)” value in assay [2] is 2/10/100. The “anticonvulsant action … (MES) model test” value in assay [3] was “anticonvulsant action was observed”.
For `NC(=O)Cc1ccccc1-c1cc(F)ccc1Cl` [Example 88, 2-(2′-chloro-5′-fluorobiphenyl-2-yl)acetamide], the responders at 50 mg/kg in assay [1] (50 mg/kg oral) and in assay [3] (50 mg/kg oral) was 66.7% in each case. Moreover, the responders at 100 mg/kg in assay [1] (100 mg/kg oral) and in assay [3] (100 mg/kg oral) was 100% throughout. The “anticonvulsant action … (scPTZ) test” value in assay [1] was “anticonvulsant action was observed”. Further, in assay [2], the “6 Hz (Positive number/tested number)” value is reported as 3/5/100. Besides, in assay [3], the “anticonvulsant action … (MES) model test” value was “anticonvulsant action was observed”.
For `NC(=O)Cc1ccccc1-c1cc(OC(F)(F)F)ccc1F` [Example 93, 2-[2′-fluoro-5′-(trifluoromethoxy)biphenyl-2-yl]acetamide], the results for the responders at 50 mg/kg in assay [1] (50 mg/kg oral) and in assay [3] (50 mg/kg oral) were 33.3% and 100%, respectively. Also, the responders at 100 mg/kg in assay [1] (100 mg/kg oral) and in assay [3] (100 mg/kg oral) was 100% each time. Besides, the “6 Hz (Positive number/tested number)” value in assay [2] was 2/5/100.
In the case of `NC(=O)Cc1ccccc1-c1ccccc1` [Example 50, 2-(biphenyl-2-yl)acetamide], the responders at 100 mg/kg was 33.3% in assay [1] (100 mg/kg oral) and 100% in assay [3] (100 mg/kg oral). In assay [2], the “6 Hz (Positive number/tested number)” value is on record as 3/5/100. Also, the responders at 50 mg/kg in assay [3] (50 mg/kg oral) was 66.7%.
